Data published in paper PMC13198257, “An aerosolized dual-action autotaxin inhibitor-PPARγ agonist for the treatment of pulmonary fibrosis” (Cell Reports Medicine, 2026).

Tested on: lung gene expression
Assay: RNA sequencing of lung tissue (BLM/EL244 vs BLM)
Type: in vivo, mouse
Procedure: RNA quality was assessed using an Agilent TapeStation 4150 with the High Sensitivity […] ScreenTape (Agilent), according to the manufacturer’s protocols. For library preparation, the QuantSeq 3’mRNA-Seq Library Prep Kit (Lexogen) was used according to manufacturer’s instructions. Briefly, 500 ng of RNA from each sample was used for first-strand synthesis, followed by RNA template removal, and second-strand synthesis initiated by random primers. In-line barcodes were introduced at this step, and this was followed by magnetic bead-based purification. The resulting libraries were amplified for 15 cycles and re-purified, with quantity and quality assessed on a Qubit 4 Fluorometer with the Invitrogen Qubit dsDNA HS Assay and an Agilent Tapestation 4150 with the High Sensitivity D1000 assay kit, respectively. The quantified libraries were pooled equimolarly; 50ng of total library mix was used for Adapter Conversion PCR Amplification using the Universal Library Conversion Kit (App-A), Version: V1.0 (MGI Tech Co., Ltd.), according to the manufacturer’s instructions.
The quantity and quality of the purified adapter conversion PCR (AC-PCR) product were evaluated on a Qubit 4 Fluorometer with the Invitrogen Qubit dsDNA HS Assay and on an Agilent Tapestation 4150 with the High Sensitivity D1000 assay kit, respectively. This was followed by DNA denaturation, Single-Strand Circularisation, Enzymatic Digestion, Enzymatic Digestion Product Cleanup and Quality Control steps on 1 pmol of AC-PCR product, according to the Universal Library Conversion Kit (App-A) User Manual (Version: A3).
Finally, 60 fmol of ssCirDNA were used for DNB preparation and sequencing on a DNBSEQ-G400 platform at the BSRC Alexander Fleming Genomics Facility, using a G400 App-A FCS SE100 High-throughput Sequencing Set (MGI Tech Co., Ltd.), according to the manufacturer’s instructions.
Alignment of the FASTQ files was performed against the mouse genome build mm10 using a custom Bash script.[143] Read counting on the 3′ UTRs and differential expression analysis were conducted using the metaseqR2 bioconductor package.[144] Genes corresponding to the following biotypes were excluded: polymorphic_pseudogene, processed_transcript, pseudogene, IG_V_pseudogene, misc_RNA, IG_C_gene, IG_J_gene, IG_D_gene, IG_LV_gene, TR_V_gene, TR_V_pseudogene, TEC, and processed_pseudogene. Gene counts were normalized with DESEQ[145] through metaseqR2. Genes with more than 10 counts in at least 50% of the samples were kept for further processing. For differential expression analysis, the PANDORA algorithm[146] was used to estimate a meta p-value integrating the results from the DESEQ, DESEQ2,[147] edgeR,[148] limma,[149] NBPSeq,[150] and NOISeq[151] algorithms. All additional parameters were set to default values.
Pathway enrichment analysis was performed for the Gene Ontology Biological process (BP) and Molecular Function (MF) terms through GeneCodis 4.[152] The volcano plots, scatterplots, Venn diagrams, and dot plots were generated using the ggplot2 Bioconductor package.

SMILES: O=C1NC(=O)C(Cc2ccc(OCCC3CCN(C(=O)OCc4cc(Cl)cc(Cl)c4)CC3)cc2)S1 (stereo not drawn) [EL244, 3,5-dichlorobenzyl 4-(2-(4-((2,4-dioxothiazolidin-5-yl)methyl)phenoxy)ethyl)piperidine-1-carboxylate]
- Myh6 log2 nFC BLM/EL244 vs BLM (DEG Myh6, nFC: normalised fold change): 2.62
- Myh7 log2 nFC BLM/EL244 vs BLM (DEG Myh7, nFC: normalised fold change): 2.22
- Myl4 log2 nFC BLM/EL244 vs BLM (DEG Myl4, nFC: normalised fold change): 1.94
- Myl7 log2 nFC BLM/EL244 vs BLM (DEG Myl7, nFC: normalised fold change): 1.90
- Mylk3 log2 nFC BLM/EL244 vs BLM (DEG Mylk3, nFC: normalised fold change): 2.03
- Myom2 log2 nFC BLM/EL244 vs BLM (DEG Myom2, nFC: normalised fold change): 1.87
- log2 nFC BLM/EL244 vs BLM (DEG Ncapd2): -1.29
- Ndrg2 log2 nFC BLM/EL244 vs BLM (DEG Ndrg2, nFC: normalised fold change): 0.88
- Nek5 log2 nFC BLM/EL244 vs BLM (DEG Nek5, nFC: normalised fold change): 0.81
- Ngp log2 nFC BLM/EL244 vs BLM (DEG Ngp, nFC: normalised fold change): 2.72
- Nhlrc1 log2 nFC BLM/EL244 vs BLM (DEG Nhlrc1, nFC: normalised fold change): 1.34
- log2 nFC BLM/EL244 vs BLM (DEG Nnat): -1.34
- Nova2 log2 nFC BLM/EL244 vs BLM (DEG Nova2, nFC: normalised fold change): 0.90
- Npr3 log2 nFC BLM/EL244 vs BLM (DEG Npr3, nFC: normalised fold change): 1.53
- Nr1d1 log2 nFC BLM/EL244 vs BLM (DEG Nr1d1, nFC: normalised fold change): 0.84
- Nr4a3 log2 nFC BLM/EL244 vs BLM (DEG Nr4a3, nFC: normalised fold change): 1.63
- log2 nFC BLM/EL244 vs BLM (DEG Nrcam): -1.26
- log2 nFC BLM/EL244 vs BLM (DEG Nrep): -1.26
- Nrgn log2 nFC BLM/EL244 vs BLM (DEG Nrgn, nFC: normalised fold change): 1.04
- Nrn1 log2 nFC BLM/EL244 vs BLM (DEG Nrn1, nFC: normalised fold change): 1.84
- Nrxn2 log2 nFC BLM/EL244 vs BLM (DEG Nrxn2, nFC: normalised fold change): 0.88
- Ogn log2 nFC BLM/EL244 vs BLM (DEG Ogn, nFC: normalised fold change): 0.86
- log2 nFC BLM/EL244 vs BLM (DEG Ooep): -1.51
- Osgin1 log2 nFC BLM/EL244 vs BLM (DEG Osgin1, nFC: normalised fold change): 0.74
- Pcolce2 log2 nFC BLM/EL244 vs BLM (DEG Pcolce2, nFC: normalised fold change): 0.98
- Pcp4l1 log2 nFC BLM/EL244 vs BLM (DEG Pcp4l1, nFC: normalised fold change): 0.75
- log2 nFC BLM/EL244 vs BLM (DEG Pdgfc): -1.47
- log2 nFC BLM/EL244 vs BLM (DEG Pdlim4): -1.24
- Phactr1 log2 nFC BLM/EL244 vs BLM (DEG Phactr1, nFC: normalised fold change): 0.74
- Phf1 log2 nFC BLM/EL244 vs BLM (DEG Phf1, nFC: normalised fold change): 0.75
- Phf24 log2 nFC BLM/EL244 vs BLM (DEG Phf24, nFC: normalised fold change): 1.57
- log2 nFC BLM/EL244 vs BLM (DEG Pla1a): -1.42
- Pla2g1b log2 nFC BLM/EL244 vs BLM (DEG Pla2g1b, nFC: normalised fold change): 0.79
- log2 nFC BLM/EL244 vs BLM (DEG Plk4): -1.31
- Pln log2 nFC BLM/EL244 vs BLM (DEG Pln, nFC: normalised fold change): 2.30
- Pmvk log2 nFC BLM/EL244 vs BLM (DEG Pmvk, nFC: normalised fold change): 1.09
- log2 nFC BLM/EL244 vs BLM (DEG Pole): -1.58
- log2 nFC BLM/EL244 vs BLM (DEG Pole2): -1.50
- Ppbp log2 nFC BLM/EL244 vs BLM (DEG Ppbp, nFC: normalised fold change): 1.09
- Ppl log2 nFC BLM/EL244 vs BLM (DEG Ppl, nFC: normalised fold change): 0.87
- Ppp4r4 log2 nFC BLM/EL244 vs BLM (DEG Ppp4r4, nFC: normalised fold change): 1.26
- Pram1 log2 nFC BLM/EL244 vs BLM (DEG Pram1, nFC: normalised fold change): 1.64
- Prf1 log2 nFC BLM/EL244 vs BLM (DEG Prf1, nFC: normalised fold change): 1.34
- Prmt8 log2 nFC BLM/EL244 vs BLM (DEG Prmt8, nFC: normalised fold change): 1.27
- Prob1 log2 nFC BLM/EL244 vs BLM (DEG Prob1, nFC: normalised fold change): 0.76
- log2 nFC BLM/EL244 vs BLM (DEG Psrc1): -1.26
- Ptgfr log2 nFC BLM/EL244 vs BLM (DEG Ptgfr, nFC: normalised fold change): 0.93
- log2 nFC BLM/EL244 vs BLM (DEG Pth1r): -1.40
- Pwwp3b log2 nFC BLM/EL244 vs BLM (DEG Pwwp3b, nFC: normalised fold change): 1.22
- Rab44 log2 nFC BLM/EL244 vs BLM (DEG Rab44, nFC: normalised fold change): 1.61
- Rapgef5 log2 nFC BLM/EL244 vs BLM (DEG Rapgef5, nFC: normalised fold change): 0.88
- Rassf10 log2 nFC BLM/EL244 vs BLM (DEG Rassf10, nFC: normalised fold change): 1.19
- Rbfox3 log2 nFC BLM/EL244 vs BLM (DEG Rbfox3, nFC: normalised fold change): 1.26
- Rbm24 log2 nFC BLM/EL244 vs BLM (DEG Rbm24, nFC: normalised fold change): 1.20
- Rdh12 log2 nFC BLM/EL244 vs BLM (DEG Rdh12, nFC: normalised fold change): 1.74
- Retnlg log2 nFC BLM/EL244 vs BLM (DEG Retnlg, nFC: normalised fold change): 1.46
- Rgs9 log2 nFC BLM/EL244 vs BLM (DEG Rgs9, nFC: normalised fold change): 1.01
